Values joined by “and” are separate entries in the source; they are usually repeats but may differ in a detail not shown here. Equal values may be shown once.
Experiments:
[1] = system: LNCaP tumor-bearing mice; experiment: Ex vivo biodistribution in mice bearing LNCaP tumor
Procedure: An experimental tumor murine model was induced using LNCaP cell, which grew to 80–90% confluence before trypsinization and formulation in Matrixgel™ Basement Membrane Matrix (Bedford, MA, USA) for implantation into mice. The mice were subcutaneously injected in the shoulder with 200 mcL bolus containing a suspension of 10^6 freshly harvested cell line LNCaP in Matrixgel™. This procedure was performed under anaesthesia with 2% isoflurane. The animals were kept under pathogen-free condition, and experiments were performed 2–3 weeks later when a tumor reached a volume of approximately 150 ± 60 mm^3. Then, the animals were randomized into two groups (25 mice per group, five mice per time point): Group 1, treated with a single intravenous injection of [^90Y]Y-PSMA-D4 (0.1 mL, 0.1 mcg, 15.5 MBq, SA 16.7 GBq mg^−1 = 17.2 GBq mcmol^−1) and Group 2, treated with a single intravenous injection of [^47Sc]Sc-PSMA-D4 (0.1 mL, 0.19 mcg, 10 MBq, SA 4.8 GBq mg^−1 = 4.57 GBq mcmol^−1).
At 1, 2, 4, 6, 24, and 48 h after injection, the animals were euthanized by cervical dislocation and dissected. Selected organs and tissues were assayed for their radioactivity and weighted. The physiological distribution was calculated and expressed in terms of the percentage of administrated radioactivity found in each of the selected organs or tissues per gram (%ID g^−1).
Results are provided as mean ± SD. The results of physiological distribution are presented as a percentage of the dose administered per gram of tissue (%ID g^−1) as average value with standard deviation (%ID g^−1; mean ± standard deviation (SD)) with n representing the number of animals per group. Data were statistically analyzed using GraphPad Prism version 8.0.0 for Window.

[2] = Blood pharmacokinetics, one-phase decay model, LNCaP tumor-bearing mice; format: in vivo; details: i.v.
Procedure: The pharmacokinetic analysis of the [^47Sc]Sc-PSMA-D4 was based on the curves of the %ID g^−1 accumulated in the blood. The pharmacokinetic parameters were determined according to a one-phase decay model. The following parameters were used: K (rate constant) and half-life calculated as ln(2)/K.
For blood activity data, a one-phase exponential decay model was used to model the percentage of remaining activity (%ID g^−1) as a time post-injection function.

[3] = molecular target: T1, PSMA antigen (Homo sapiens, UniProt Q04609); experiment: Saturation radioligand binding assay on LNCaP (PSMA positive) and PC3 (PSMA negative) cell membranes; details: for Kd: LNCaP cell membranes, 2 h, 37 °C; for Specific Binding: total binding on LNCaP minus non-specific binding on PC3 membranes
T1 construct: PSMA antigen expressed on LNCaP cell membranes; endogenous in cells; host or cells: LNCaP cell membranes (PC3 membranes as PSMA-negative control)
T1 sequence (Q04609 whole entry): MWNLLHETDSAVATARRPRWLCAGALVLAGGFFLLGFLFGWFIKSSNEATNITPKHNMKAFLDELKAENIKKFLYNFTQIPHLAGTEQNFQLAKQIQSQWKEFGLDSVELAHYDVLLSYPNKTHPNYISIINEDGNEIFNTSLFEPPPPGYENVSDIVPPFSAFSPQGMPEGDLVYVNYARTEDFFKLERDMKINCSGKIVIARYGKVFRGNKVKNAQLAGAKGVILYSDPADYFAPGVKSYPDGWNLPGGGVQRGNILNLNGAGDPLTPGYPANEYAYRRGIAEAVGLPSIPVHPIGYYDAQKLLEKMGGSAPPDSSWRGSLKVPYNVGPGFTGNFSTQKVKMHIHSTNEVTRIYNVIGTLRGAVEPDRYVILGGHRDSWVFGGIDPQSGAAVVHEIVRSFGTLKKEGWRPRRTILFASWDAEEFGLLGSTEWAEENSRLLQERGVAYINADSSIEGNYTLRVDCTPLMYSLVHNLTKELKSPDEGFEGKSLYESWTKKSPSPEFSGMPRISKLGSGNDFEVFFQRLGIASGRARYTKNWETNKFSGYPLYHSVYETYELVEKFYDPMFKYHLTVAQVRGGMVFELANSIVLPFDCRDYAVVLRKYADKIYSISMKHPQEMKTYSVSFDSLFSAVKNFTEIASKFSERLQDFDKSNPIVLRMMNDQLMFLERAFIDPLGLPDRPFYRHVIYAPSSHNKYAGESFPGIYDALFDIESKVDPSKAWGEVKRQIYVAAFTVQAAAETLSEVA
Procedure: The equilibrium constant (KD) was determined by a saturation binding experiment performed in PSMA positive LNCaP and PSMA negative PC3 cell membranes isolated according to the procedure developed by Fichna et al.. The 50 mcL of LNCaP and PC3 cell membranes were seeded on special MultiScreen™ 96 well filter plates (Merck, Warsaw, Poland) and incubated for 2 h with increasing concentration of [^177Lu]Lu-PSMA-D4, [^90Y]Y-PSMA-D4, and […] (0.016–194 nM) at 37 °C. After incubation, the unbound radiocomplexes were filtered under vacuum, and the membranes were washed twice using PBS. The filters containing membranes with the attached radiotracer were extruded into tubes using MultiScreen Multile Punch (Merck). The number of associated inhibitors was determined by measuring the radioactivity of squeezed filters using Wallac Wizard 1470 γ counter. The KD and Bmax were calculated by nonlinear regression using the GraphPad Prism statistic program.

[4] = Blood pharmacokinetics, one-phase model, healthy rats; format: in vivo; details: healthy rats (data not presented)
[5] = Lipophilicity determination (logD), shake-flask method; format: physicochemical; details: n-octanol / PBS pH 7.4, shake-flask
Procedure: The partition coefficient logD of the radioligands was determined by the shake-flask method. The solution of 10 to 50 MBq of radiolabeled PSMA ligands (D-4, 617, 11, I&T) in 1.0 mL of phosphate-buffered saline (PBS, pH 7.4) was added to 1.0 mL of presaturated n-octanol solution (n = 3). Vials were shaken vigorously for 10 min. To achieve quantitative phase separation, the vials were centrifuged at 1600 rpm for 5 min. The radioactivity concentration in a defined volume of both the aqueous and the organic phase in six replicates each was measured in a γ-counter (Wizard 1470, Wallac, Turku, Finland). The partition coefficient was calculated as the logarithm of the ratio between counts per minute (cpm) measured in the n-octanol phase to the PBS phase counts.

[6] = system: LNCaP cells; experiment: Cell uptake (total binding) and internalization in LNCaP cells; format: cell-based, human; details: 37 °C, 2 h
Procedure: To determine cell uptake and internalization of [^177Lu]Lu-PSMA-D4 and [^90Y]Y-PSMA-D4, LNCaP cells (5 × 10^5 cells well^−1) were incubated in un-supplemented RPMI 1640 medium with one concentration of tested radioligands on 12-well plates in 37 °C per 2 h. After the appropriate time, the medium was removed, and cells were washed twice using phosphate buffer saline (PBS, IITD PAN, Wroclaw, Poland). The cells were treated twice with 1 mL of 50 mM glycine in 0.1 M NaCl at a pH of 2.8 and incubated for 5 min at room temperature to collect extracellularly bound compound. The internalization was determined by measuring the radioactivity of 1mL of 1 M NaOH used for cell lysis. Total binding was calculated as a sum of the membrane and internalized fractions measured using Wallac Wizard 1470 γ counter. As a control, [^177Lu]Lu-PSMA-617 and [^68Ga]Ga-PSMA-11 were used.

O=C([O-])CN1CCN(CC(=O)[O-])CCN(CC(=O)NCC2CCC(C(=O)NC(Cc3c[nH]c4ccccc34)C(=O)NCCCCC(NC(=O)NC(CCC(=O)O)C(=O)O)C(=O)O)CC2)CCN(CC(=O)[O-])CC1.[47Sc+3] (centres unmarked) [[^47Sc]Sc-PSMA-D4]
T/B (ratio tumor to blood) ([1]; 1 h after i.v. injection): 31.6
T/K (ratio tumor to kidneys) ([1]; 1 h after i.v. injection): 1.0
T/M (ratio tumor to muscle) ([1]; 1 h after i.v. injection): 135.2
blood ([1]; 1 h after i.v. injection): 0.29 ± 0.08 %ID g^−1
kidneys ([1]; 1 h after i.v. injection): 9.46 ± 1.44 %ID g^−1
large intestine ([1]; 1 h after i.v. injection): 0.09 ± 0.03 %ID g^−1
liver ([1]; 1 h after i.v. injection): 0.13 ± 0.02 %ID g^−1
muscle ([1]; 1 h after i.v. injection): 0.10 ± 0.06 %ID g^−1
small intestine ([1]; 1 h after i.v. injection): 0.35 ± 0.19 %ID g^−1
spleen ([1]; 1 h after i.v. injection): 0.52 ± 0.19 %ID g^−1
stomach ([1]; 1 h after i.v. injection): 0.23 ± 0.09 %ID g^−1
tumor ([1]; 1 h after i.v. injection): 9.24 ± 5.13 %ID g^−1
urine ([1]; 1 h after i.v. injection): 89.23 ± 2.63 %ID
T/B (ratio tumor to blood) ([1]; 4 h after i.v. injection): 120.9
T/K (ratio tumor to kidneys) ([1]; 4 h after i.v. injection): 4.3
T/M (ratio tumor to muscle) ([1]; 4 h after i.v. injection): 24.3
blood ([1]; 4 h after i.v. injection): 0.08 ± 0.04 %ID g^−1
kidneys ([1]; 4 h after i.v. injection): 2.16 ± 0.86 %ID g^−1
large intestine ([1]; 4 h after i.v. injection): 0.70 ± 0.48 %ID g^−1
liver ([1]; 4 h after i.v. injection): 0.08 ± 0.04 %ID g^−1
muscle ([1]; 4 h after i.v. injection): 0.39 ± 0.17 %ID g^−1
small intestine ([1]; 4 h after i.v. injection): 0.41 ± 0.30 %ID g^−1
spleen ([1]; 4 h after i.v. injection): 0.57 ± 0.31 %ID g^−1
stomach ([1]; 4 h after i.v. injection): 0.39 ± 0.17 %ID g^−1
tumor ([1]; 4 h after i.v. injection): 9.22 ± 2.21 %ID g^−1
urine ([1]; 4 h after i.v. injection): 93.42 ± 2.07 %ID
T/B (ratio tumor to blood) ([1]; 6 h after i.v. injection): 207.6
T/K (ratio tumor to kidneys) ([1]; 6 h after i.v. injection): 6.1
T/M (ratio tumor to muscle) ([1]; 6 h after i.v. injection): 251.0
blood ([1]; 6 h after i.v. injection): 0.04 ± 0.01 %ID g^−1
kidneys ([1]; 6 h after i.v. injection): 1.42 ± 0.28 %ID g^−1
large intestine ([1]; 6 h after i.v. injection): 0.69 ± 0.17 %ID g^−1
liver ([1]; 6 h after i.v. injection): 0.06 ± 0.01 %ID g^−1
muscle ([1]; 6 h after i.v. injection): 0.03 ± 0.02 %ID g^−1
small intestine ([1]; 6 h after i.v. injection): 0.11 ± 0.07 %ID g^−1
spleen ([1]; 6 h after i.v. injection): 0.08 ± 0.04 %ID g^−1
stomach ([1]; 6 h after i.v. injection): 0.08 ± 0.09 %ID g^−1
tumor ([1]; 6 h after i.v. injection): 8.65 ± 3.19 %ID g^−1
urine ([1]; 6 h after i.v. injection): 94.89 ± 1.34 %ID
T/B (ratio tumor to blood) ([1]; 24 h after i.v. injection): 467.3
T/K (ratio tumor to kidneys) ([1]; 24 h after i.v. injection): 18.4
T/M (ratio tumor to muscle) ([1]; 24 h after i.v. injection): 229.0
blood ([1]; 24 h after i.v. injection): 0.01 ± 0.01 %ID g^−1
kidneys ([1]; 24 h after i.v. injection): 0.29 ± 0.09 %ID g^−1
large intestine ([1]; 24 h after i.v. injection): 0.12 ± 0.12 %ID g^−1
liver ([1]; 24 h after i.v. injection): 0.03 ± 0.01 %ID g^−1
muscle ([1]; 24 h after i.v. injection): 0.02 ± 0.02 %ID g^−1
small intestine ([1]; 24 h after i.v. injection): 0.34 ± 0.18 %ID g^−1
spleen ([1]; 24 h after i.v. injection): 0.04 ± 0.01 %ID g^−1
stomach ([1]; 24 h after i.v. injection): 0.05 ± 0.06 %ID g^−1
tumor ([1]; 24 h after i.v. injection): 5.28 ± 3.01 %ID g^−1
urine ([1]; 24 h after i.v. injection): 97.89 ± 1.22 %ID
T/B (ratio tumor to blood) ([1]; 48 h after i.v. injection): 78.8
T/K (ratio tumor to kidneys) ([1]; 48 h after i.v. injection): 16.0
T/M (ratio tumor to muscle) ([1]; 48 h after i.v. injection): 66.7
blood ([1]; 48 h after i.v. injection): 0.05 ± 0.03 %ID g^−1
kidneys ([1]; 48 h after i.v. injection): 0.26 ± 0.14 %ID g^−1
large intestine ([1]; 48 h after i.v. injection): 1.63 ± 0.31 %ID g^−1
liver ([1]; 48 h after i.v. injection): 0.04 ± 0.01 %ID g^−1
muscle ([1]; 48 h after i.v. injection): 0.06 ± 0.06 %ID g^−1
small intestine ([1]; 48 h after i.v. injection): 0.45 ± 0.13 %ID g^−1
spleen ([1]; 48 h after i.v. injection): 0.10 ± 0.09 %ID g^−1
stomach ([1]; 48 h after i.v. injection): 0.03 ± 0.04 %ID g^−1
tumor ([1]; 48 h after i.v. injection): 4.11 ± 1.08 %ID g^−1
urine ([1]; 48 h after i.v. injection): 95.37 ± 1.89 %ID
blood half-life [2]: 10.4 min and 10.2 min
Kd [3]: 3.4 ± 2 nM
Specific Binding [3]: 98.8 ± 0.9%

O=C([O-])CN1CCN(CC(=O)[O-])CCN(CC(=O)NCC2CCC(C(=O)NC(Cc3c[nH]c4ccccc34)C(=O)NCCCCC(NC(=O)NC(CCC(=O)O)C(=O)O)C(=O)O)CC2)CCN(CC(=O)[O-])CC1.[177Lu+3] (centres unmarked) [[^177Lu]Lu-PSMA-D4]
blood half-life [4]: 33 min
logD [5]: −5.16 ± 0.07
Internalization [6]: 37.0 ± 3.3%
Total Binding [6]: 10.2%
Kd [3]: 2.4 ± 0.3 nM
Specific Binding [3]: 99.1 ± 0.3%

From publication PMC7962978, “PSMA-D4 Radioligand for Targeted Therapy of Prostate Cancer: Synthesis, Characteristics and Preliminary Assessment of Biological Properties” (International Journal of Molecular Sciences, 2021)
